Test results as given in PMC6277434, “Discovery of a potent HMG-CoA reductase degrader that eliminates statin-induced reductase accumulation and lowers cholesterol” (Nature Communications, 2018).
Where two headings read alike, the source gives them in different places.

Tests used:
HMGCR (TM1-8)-GFP [1] = molecular target: T1, HMGCR (TM1-8)-GFP (Cricetulus griseus, UniProt P00347)
T1 sequence (P00347 1-346): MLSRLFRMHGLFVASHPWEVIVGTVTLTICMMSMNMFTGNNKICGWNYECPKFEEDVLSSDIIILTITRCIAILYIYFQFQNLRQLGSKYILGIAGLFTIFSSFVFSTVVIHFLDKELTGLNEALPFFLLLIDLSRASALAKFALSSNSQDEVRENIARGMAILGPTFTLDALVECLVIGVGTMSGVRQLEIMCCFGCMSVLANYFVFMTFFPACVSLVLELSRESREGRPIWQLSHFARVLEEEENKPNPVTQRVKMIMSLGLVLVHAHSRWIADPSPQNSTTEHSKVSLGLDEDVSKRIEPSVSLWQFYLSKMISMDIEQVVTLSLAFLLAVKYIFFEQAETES
Method: (§1) We thus generated a cell line stably expressing the transmembrane domain of HMGCR fused with green fluorescent protein (GFP) as a reporter (HMGCR (TM1-8)-GFP) (Fig. 2a).
(§2) CHO-7 cells were transfected with pCMV-HMGCR (TM1-8)-GFP using FuGENE HD. Twenty-four hours, cells were switched to medium B supplemented with 5% FBS and selected in the presence of 1 mg ml^−1 G418 for 2 weeks. Surviving colonies were isolated and confirmed for GFP expression by immunoblotting and immunofluorescence. The resulting CHO-7/HMGCR (TM1-8)-GFP stable cell line (CHG) was maintained in medium B supplemented with 5% FBS and 200 μg ml^−1 G418.
(§3) CHG cells were treated as described in figure legends. Briefly, cells were seeded at day 0 in 96-well black plate (3904, Corning) at a density of 1.5 × 10^4 cells per well, in medium B containing with 5% LPDS. Day 1, corresponding compounds were added as figure legends described in medium B with 5% LPDS, 1 μM lovastatin, 50 μM sodium mevalonate for 16 h. Then cells were fixed with 4% paraformaldehyde for 20 min, washed with PBS for three times, and stained with 2 μg ml^−1 Hoechst 33342.
(§4) The fluorescent images (GFP and Hoechst channel) were captured using an Operatta High-Content Imaging System (PerkinElmer) with a ×20 objective. The cytoplasmic GFP fluorescence was measured with the Harmony Software (PerkinElmer). Five random selected filed per well were captured, and about 3000 cells were used to determine the mean cytoplasmic GFP fluorescent intensity per cell after subtracting background GFP intensity. The average GFP intensity of DMSO-treated cells was defined as 100.

HMGCR (TM1-8)-GFP [2] = molecular target: T1, HMGCR (TM1-8)-GFP; test: HMGCR (TM1-8)-GFP fluorescent assay (high-content imaging) in CHG cells; conditions: for effect on HMGCR (TM1-8)-GFP intensity: CHG cells
Method: as §1, §2, §3, §4

[3] = read-out: Mean (HMGCR (TM1-8)-GFP signal relative to 0 μM = 100)
[4] = 16 h, read-out: HMGCR (TM1-8)-GFP fluorescent intensity, mean

Structure (SMILES)	DC50 (HMGCR (TM1-8)-GFP [1])	remaining activity at 0.156 µM (HMGCR (TM1-8)-GFP [2]; [3])	remaining activity at 0.313 µM (HMGCR (TM1-8)-GFP [2]; [3])	remaining activity at 0.625 µM (HMGCR (TM1-8)-GFP [2]; [3])	remaining activity at 1.25 µM (HMGCR (TM1-8)-GFP [2]; [3])	remaining activity at 2.5 µM (HMGCR (TM1-8)-GFP [2]; [3])	remaining activity at 5 µM (HMGCR (TM1-8)-GFP [2]; [3])	remaining activity at 10 µM (HMGCR (TM1-8)-GFP [2]; [3])	remaining activity at 0.1 µM (HMGCR (TM1-8)-GFP [2]; [4])	remaining activity at 0.3 µM (HMGCR (TM1-8)-GFP [2]; [4])	remaining activity at 1 µM (HMGCR (TM1-8)-GFP [2]; [4])	remaining activity at 3 µM (HMGCR (TM1-8)-GFP [2]; [4])	remaining activity at 10 µM (HMGCR (TM1-8)-GFP [2]; [4])	remaining activity at 20 µM (HMGCR (TM1-8)-GFP [2]; [4])	remaining activity at 30 µM (HMGCR (TM1-8)-GFP [2]; [4])	effect on HMGCR (TM1-8)-GFP intensity (HMGCR (TM1-8)-GFP [2]; 16 h)
COC(=O)CCC[C@@H](C)C1CCC2C3C(CC[C@@]21C)[C@@]1(C)CC[C@H](O)C(C)(C)C1=C[C@@H]3O (stereo partly shown) [Compound 72]	6770 nM	109%	104%	96.6%	89.7%	77.5%	56.3%	40.9%								
CC(C)CCC[C@@H](C)[C@H]1CCC2C3C(CC[C@@]21C)[C@@]1(C)CC[C@H](O)C(C)(C)C1=C[C@H]3N=[N+]=[N-] (stereo partly shown) [Compound 18]									99.5%	103%	103%	99.4%	96.7%	98.8%	93%	
C[C@H](CCCCCC(C)(C)O)C1CCC2C3C(CC[C@@]21C)[C@@]1(C)CC[C@H](O)C(C)(C)C1=C[C@@H]3O (stereo partly shown) [Compound 117]	710 nM	92%	72.4%	47.7%	29.5%	20.4%	16.1%	20.4%								
C[C@H](CCCO)C1CCC2C3C(CC[C@@]21C)[C@@]1(C)CC[C@H](O)C(C)(C)C1=C[C@@H]3O (stereo partly shown) [Compound 51]	9080 nM	98.3%	102%	101%	92.8%	82.2%	67.8%	47.7%								
CC(C)CCC[C@@H](C)[C@H]1CCC2C3C(=O)C=C4C(C)(C)[C@@H](O)CC[C@]4(C)C3CC[C@@]21C (stereo partly shown) [Compound 33]									93%	97.3%	94.4%	96.3%	95.2%	85%		
C[C@H](CCCCCCO)C1CCC2C3C(CC[C@@]21C)[C@@]1(C)CC[C@H](O)C(C)(C)C1=C[C@@H]3O (stereo partly shown) [Compound 113]	1720 nM	94.7%	91.3%	72.7%	57.4%	35.8%	22%	24.1%								
CCC(O)(CC)CCCCC[C@@H](C)C1CCC2C3C(CC[C@@]21C)[C@@]1(C)CC[C@H](O)C(C)(C)C1=C[C@@H]3O (stereo partly shown) [Compound 118]	970 nM	93.8%	76.6%	55.5%	38.3%	26.4%	20.4%	21.8%								
CC(O)CC[C@@H](C)C1CCC2C3C(CC[C@@]21C)[C@@]1(C)CC[C@H](O)C(C)(C)C1=C[C@@H]3O (stereo partly shown) [Compound 63]	2960 nM	100%	97.9%	86.9%	73.2%	50.1%	37.4%	21%								
C=CCC(O)(CC=C)CCCCC[C@@H](C)C1CCC2C3C(CC[C@@]21C)[C@@]1(C)CC[C@H](O)C(C)(C)C1=C[C@@H]3O (stereo partly shown) [Compound 119]	4130 nM	92.9%	96%	91.6%	81.1%	62.7%	42.5%	28.9%								
C=CCC1(CC=C)C2=CCC3C(CC[C@@]4(C)C3CC[C@@H]4[C@H](C)CCCC(C)C)[C@@]2(C)CC[C@@H]1O (stereo partly shown) [Compound 9]									95.3%	92.7%	80.9%	90.8%	93.7%	88.7%	90.8%	did not decrease the HMGCR (TM1-8)-GFP intensity
CCC(O)CCC[C@@H](C)C1CCC2C3C(CC[C@@]21C)[C@@]1(C)CC[C@H](O)C(C)(C)C1=C[C@@H]3O (stereo partly shown) [Compound 87]	1080 nM	91.3%	78.3%	62.1%	43.1%	26.7%	20.1%	18.9%								
C[C@H](CCCC(=O)O)C1CCC2C3C(CC[C@@]21C)[C@@]1(C)CC[C@H](O)C(C)(C)C1=C[C@@H]3O (stereo partly shown) [Compound 73]	60600 nM	97%	97.9%	97.7%	98.1%	92.6%	87.2%	81.4%								
C=CCC(O)CCC[C@@H](C)C1CCC2C3C(CC[C@@]21C)[C@@]1(C)CC[C@H](O)C(C)(C)C1=C[C@@H]3O (stereo partly shown) [Compound 88]	910 nM	82.3%	75.6%	67.9%	37.1%	17.6%	12%	16.6%								
COCCCCC[C@@H](C)C1CCC2C3C(CC[C@@]21C)[C@@]1(C)CC[C@H](O)C(C)(C)C1=C[C@@H]3O (stereo partly shown) [Compound 95]	2340 nM															
CCC(O)(CC)CCCC[C@@H](C)C1CCC2C3C(CC[C@@]21C)[C@@]1(C)CC[C@H](O)C(C)(C)C1=C[C@@H]3O (stereo partly shown) [Compound 101]	590 nM	86.6%	74%	52.3%	35.6%	22.8%	15.2%	15.2%								
CCC(O)(CC)CCC[C@@H](C)C1CCC2C3C(CC[C@@]21C)[C@@]1(C)CC[C@H](O)C(C)(C)C1=C[C@@H]3O (stereo partly shown) [Compound 80]	550 nM	85.3%	75.8%	58.1%	33.7%	18.3%	12.1%	10.3%								
CCC1(CCOC)C2=CCC3C(CCC4(C)C(C(C)CCCC(C)C)CCC34)C2(C)CCC1O (stereo not shown) [Compound 11]									90.8%	97.1%	100%	91.7%	93.3%	97.4%	95.4%	did not decrease the HMGCR (TM1-8)-GFP intensity
C[C@H](CCC(=O)O)C1CCC2C3C(CC[C@@]21C)[C@@]1(C)CC[C@H](O)C(C)(C)C1=C[C@@H]3O (stereo partly shown) [Compound 50]		98.8%	106%	105%	105%	103%	100%	98.3%								
COCCC1(CCOC)C2=CCC3C(CC[C@@]4(C)C3CC[C@@H]4[C@H](C)CCCC(C)C)[C@@]2(C)CC[C@@H]1O (stereo partly shown) [Compound 14]									90.2%	107%	99.6%	93.4%	99.4%	106%	98.6%	did not decrease the HMGCR (TM1-8)-GFP intensity
CC(C)CCC[C@@H](C)[C@H]1CCC2C3CC=C4C5(CCCCC5)[C@@H](O)CC[C@]4(C)C3CC[C@@]21C (stereo partly shown) [Compound 10]									100%	106%	92.7%	102%	103%	98.6%	101%	did not decrease the HMGCR (TM1-8)-GFP intensity
CC(=O)N[C@@H]1C=C2C(C)(C)[C@@H](O)CC[C@]2(C)C2CC[C@@]3(C)C(CC[C@@H]3[C@H](C)CCCC(C)C)C21 (stereo partly shown) [Compound 22]									97.3%	91.4%	89.7%	101%	97.5%	97.9%	93.5%	
C[C@H](CCCCCO)C1CCC2C3C(CC[C@@]21C)[C@@]1(C)CC[C@H](O)C(C)(C)C1=C[C@@H]3O (stereo partly shown) [Compound 96]	2960 nM															
CC(C)CCC[C@@H](C)[C@H]1CCC2C3C(CC[C@@]21C)[C@@]1(C)CC[C@H](O)C(C)(C)C1=C[C@H]3N (stereo partly shown) [Compound 19]									90.2%	107%	99.6%	93.4%	99.4%	106%	99.6%	
CCC1(CC)C2=CCC3C(CC[C@@]4(C)C3CC[C@@H]4[C@H](C)CCCC(C)C)[C@@]2(C)CC[C@@H]1O (stereo partly shown) [Compound 8]									90.5%	79.5%	82.7%	83.2%	89.3%	91.4%	93.9%	did not decrease the HMGCR (TM1-8)-GFP intensity
